Test results as given in US20240217951A1, “PCSK9 INHIBITORS AND METHODS OF USE THEREOF” (AstraZeneca AB, priority 2022, published 2024).

Assays:
[1] = biological target: T1, potassium ion channel hERG (human Ether-á-go-go-Related Gene) (Homo sapiens, UniProt Q12809); assay: Assay 5 - hERG assay (SyncroPatch 384PE patch clamp, CHO cells); type: cell-based; settings: geometric mean; CHO cells over-expressing hERG; read-out: Assay 5 (hERG Hu CHO IF EPh CR-Syncro) GMean IC50
T1 construct: expressed in transfected cells; host or cells: Chinese hamster ovary K1 (CHO)
Method: Assay 5—hERG Assay (Human Ether-á-go-go-Related Gene)
This assay (human Ether-á-go-go-Related Gene) measures activity of the compounds at the potassium ion channel hERG (human Ether-á-go-go-Related Gene).
Experiments were performed on the SyncroPatch 384PE high throughput patch clamp platform at room temperature and medium resistance chips with 4 patch holes per site. Chinese hamster ovary K1 (CHO) cell lines over-expressing the ion channel of choice (hERG) were used in assay-ready format and kept in liquid nitrogen or were used from live culture. Cells were either thawed and diluted in HBSS or were detached from flasks and resuspended in HBSS. HBSS comprised 140 mM NaCl, 4 mM KCl, 10 mM HEPES and 5 mM Glucose (pH7.4). The internal patch clamp solution was KF 120 mM, KCl 20 mM, HEPES 10 mM, EGTA 10 mM, and 25 PM Escin (pH 7.2). After the sealing process was complete, the external solution was exchanged for external patch clamp solution comprising NaCl 80 mM, KCl 4 mM, HEPES 10 mM, CaCl2 2 mM, MgCl2 1 mM, glucose 5 mM, and NMDG 60 mM (pH 7.4). All solutions were stored at room temperature, except Escin, which was stored at 4° C. All test compounds were dispensed in greiner-bio 384 well plates and tested in a 6 point cumulative assay (final DMSO concentration 0.33%). Only wells that passed previously agreed acceptance criteria for this platform were used in this analysis (30 MegaOhm seal resistance, Z prime >0.4 and current size >0.2 nA).

[2] = biological target: GSK3β (Glycogen synthase kinase-3 beta) (Homo sapiens, UniProt P49841); assay: Assay 6 - GSK3β assay (ThermoFisher Z-Lyte); type: biochemical; settings: geometric mean; ATP Conc: 10 μM; read-out: Assay 6 (GSK3β FRET-Z-Lyte CR) GMean IC50 (μM) ATP Conc: 10
Method: Assay 6—GSK3β Assay (ThermoFisher Assay)
This assay measures the activity of the compounds at GSK3β (Glycogen synthase kinase-3 beta).
The test compounds were screened in 1% DMSO (final) in the well. For 10 point titrations, 3-fold serial dilutions are conducted from the starting concentration of 10 μM.
Bar-coded Corning, low volume NBS, black 384-well plate • 1. 2.5 μL—4× Test Compound or 100 nL 100× plus 2.4 μL kinase buffer • 2. 5 μL—2× Peptide/Kinase Mixture • 3. 2.5 μL—4×ATP Solution • 4. 30-second plate shake • 5. 60-minute Kinase Reaction incubation at room temperature • 6. 5 μL—Development Reagent Solution • 7. 30-second plate shake • 8. 60-minute Development Reaction incubation at room temperature • 9. Read on fluorescence plate reader and analyse the data
In step 2, the 2×GSK3β (GSK3 beta)/Ser/Thr (Glycogen synthase kinase-3 beta/Serine/Threonine) 09 mixture is prepared in 50 mM HEPES (4-(2-hydroxyethyl)-1-piperazineethanesulfonic acid) pH 7.5, 0.01% BRIJ-35, 10 mM MgCl2, 1 mM EGTA (egtazic acid). The final 10 μL Kinase Reaction consists of 0.22-0.92 ng GSK3β (GSK3 beta) and 2 μM Ser/Thr 09 in 50 mM HEPES pH 7.5, 0.01% BRIJ-35, 10 mM MgCl2, 1 mM EGTA.
In step 3 the ATP Solution is diluted to a 4× working concentration in Kinase Buffer (50 mM HEPES pH 7.5, 0.01% BRIJ-35, 10 mM MgCl2, 1 mM EGTA).
In Step 6 the Development Reagent is diluted 1:512 in Development Buffer (10× Novel PKC Lipid Mix: 2 mg/mL Phosphatidyl Serine, 0.2 mg/mL DAG in 20 mM HEPES, pH 7.4, 0.3% CHAPS).
SelectScreen® Kinase Profiling Service uses XLfit from IDBS. The dose response curve is curve fit to model number 205 (sigmoidal dose-response model).

[3] = biological target: PCSK9 (Homo sapiens, UniProt Q8NBP7, G670E/V474I); assay: biochemical
PCSK9, sequence (Q8NBP7 with tags, fused parts or gaps V474I/G670E): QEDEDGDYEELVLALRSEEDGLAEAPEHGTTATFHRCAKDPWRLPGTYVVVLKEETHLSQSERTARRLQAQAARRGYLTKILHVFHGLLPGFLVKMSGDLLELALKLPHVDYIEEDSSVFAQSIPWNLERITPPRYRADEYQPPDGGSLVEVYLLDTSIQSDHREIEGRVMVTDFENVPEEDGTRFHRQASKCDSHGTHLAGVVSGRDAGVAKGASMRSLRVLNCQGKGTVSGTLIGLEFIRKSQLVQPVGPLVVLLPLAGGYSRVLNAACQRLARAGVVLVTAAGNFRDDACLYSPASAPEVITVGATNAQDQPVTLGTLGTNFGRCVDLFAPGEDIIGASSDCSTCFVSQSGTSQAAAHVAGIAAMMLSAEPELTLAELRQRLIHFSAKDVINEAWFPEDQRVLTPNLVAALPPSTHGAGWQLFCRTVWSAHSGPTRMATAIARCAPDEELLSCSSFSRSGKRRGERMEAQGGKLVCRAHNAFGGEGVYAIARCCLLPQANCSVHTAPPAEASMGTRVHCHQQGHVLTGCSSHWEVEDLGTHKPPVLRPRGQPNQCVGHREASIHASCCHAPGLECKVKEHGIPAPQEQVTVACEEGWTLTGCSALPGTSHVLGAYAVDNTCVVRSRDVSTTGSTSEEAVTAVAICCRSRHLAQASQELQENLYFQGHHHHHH

T1 sequence (Q12809 whole entry): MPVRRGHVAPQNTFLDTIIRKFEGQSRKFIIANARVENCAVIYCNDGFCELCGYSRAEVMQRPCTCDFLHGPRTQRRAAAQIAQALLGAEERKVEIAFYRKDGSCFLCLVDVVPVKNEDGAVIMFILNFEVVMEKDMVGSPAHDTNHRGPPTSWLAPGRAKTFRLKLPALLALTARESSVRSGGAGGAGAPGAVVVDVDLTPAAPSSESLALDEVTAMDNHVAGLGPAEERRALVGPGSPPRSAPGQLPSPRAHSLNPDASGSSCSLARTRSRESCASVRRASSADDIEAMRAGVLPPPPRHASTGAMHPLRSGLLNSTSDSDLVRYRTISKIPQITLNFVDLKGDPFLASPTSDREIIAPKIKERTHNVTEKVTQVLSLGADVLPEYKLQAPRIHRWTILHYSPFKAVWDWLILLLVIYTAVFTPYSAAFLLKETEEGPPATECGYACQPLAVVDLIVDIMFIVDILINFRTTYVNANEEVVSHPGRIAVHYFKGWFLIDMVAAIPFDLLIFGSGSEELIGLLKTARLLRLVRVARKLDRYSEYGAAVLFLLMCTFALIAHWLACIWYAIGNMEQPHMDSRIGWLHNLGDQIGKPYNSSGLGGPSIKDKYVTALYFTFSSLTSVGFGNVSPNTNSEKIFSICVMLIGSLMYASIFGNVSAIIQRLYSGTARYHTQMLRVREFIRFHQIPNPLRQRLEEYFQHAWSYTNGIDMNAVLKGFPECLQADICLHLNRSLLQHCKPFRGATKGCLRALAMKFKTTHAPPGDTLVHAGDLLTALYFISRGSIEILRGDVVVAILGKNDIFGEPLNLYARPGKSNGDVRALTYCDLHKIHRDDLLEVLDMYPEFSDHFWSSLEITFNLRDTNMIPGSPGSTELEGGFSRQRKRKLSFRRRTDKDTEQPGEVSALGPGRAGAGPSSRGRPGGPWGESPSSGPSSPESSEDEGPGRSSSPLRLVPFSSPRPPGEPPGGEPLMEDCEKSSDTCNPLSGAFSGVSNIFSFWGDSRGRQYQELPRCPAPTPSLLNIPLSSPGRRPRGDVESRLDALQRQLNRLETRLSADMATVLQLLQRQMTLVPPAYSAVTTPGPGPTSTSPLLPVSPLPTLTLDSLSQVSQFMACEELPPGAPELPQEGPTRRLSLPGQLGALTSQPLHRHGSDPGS
GSK3β (Glycogen synthase kinase-3 beta), sequence (P49841 whole entry): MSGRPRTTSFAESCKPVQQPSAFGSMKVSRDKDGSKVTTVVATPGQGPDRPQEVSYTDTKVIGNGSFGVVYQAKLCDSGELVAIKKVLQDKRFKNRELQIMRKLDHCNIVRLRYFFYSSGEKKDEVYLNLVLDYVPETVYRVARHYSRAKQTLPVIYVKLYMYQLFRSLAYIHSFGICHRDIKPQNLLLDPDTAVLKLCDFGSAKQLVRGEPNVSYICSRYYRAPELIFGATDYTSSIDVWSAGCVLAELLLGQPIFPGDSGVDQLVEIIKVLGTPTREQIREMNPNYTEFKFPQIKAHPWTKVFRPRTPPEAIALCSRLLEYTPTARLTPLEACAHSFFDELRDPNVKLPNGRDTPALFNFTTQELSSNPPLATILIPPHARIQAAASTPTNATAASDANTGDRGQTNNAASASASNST

`COc1cccn(-c2ccc(N[C@H]3CC[C@H](Nc4cnc(C)cn4)C3)nc2)c1=O` (single isomer, unassigned) [Example 171] was tested, and the IC50 [1] was > 40.1 µM, the IC50 [2] was 2.1 µM and the IC50 [3] was 0.602 µM.

`CNC(=O)c1cnc(N[C@H]2CC[C@H](Nc3ccc(-n4cccc(OC)c4=O)cn3)C2)cn1` (stereo in doubt) [Example 150, 5-(((1S,3S)-3-((3-Methoxy-2-oxo-2H-[1,3′-bipyridin]-6′-yl)amino)cyclopentyl)amino)-N-methylpyrazine-2-carboxamide] was tested, and the IC50 [1] was > 40.1 µM, the IC50 [2] was > 10 µM and the IC50 [3] was 8.7 µM.

For `Cn1ccc2nc(N[C@H]3CC[C@H](Nc4ccc(-n5ccccc5=O)cn4)C3)cnc21` [Example 7, 6′-(((1S,3S)-3-((5-Methyl-5H-pyrrolo[2,3-b]pyrazin-2-yl)amino)cyclopentyl)amino)-2H-[1,3′-bipyridin]-2-one], the IC50 [1] was > 40 µM, the IC50 [2] was > 10 µM and the IC50 [3] was 3.5 µM.

`Cn1ccc2ncc(N[C@H]3CC[C@H](Nc4ccc(-n5ccccc5=O)cn4)C3)nc21` [Example 8, 6′-(((1S,3S)-3-((5-Methyl-5H-pyrrolo[2,3-b]pyrazin-3-yl)amino)cyclopentyl)amino)-2H-[1,3′-bipyridin]-2-one] was tested, and the IC50 [1] was > 40 µM, the IC50 [2] was > 10 µM and the IC50 [3] was 0.257 µM.

For `Cn1ncc2ncc(N[C@H]3CC[C@H](Nc4ccc(-n5ccccc5=O)cn4)C3)nc21` [Example 9, 6′-(((1S,3S)-3-((1-Methyl-1H-pyrazolo[3,4-b]pyrazin-6-yl)amino)cyclopentyl)amino)-2H-[1,3′-bipyridin]-2-one], the IC50 [1] was > 40 µM, the IC50 [2] was 5.6 µM and the IC50 [3] was 0.677 µM.

`COc1ccc(=O)n(-c2ccc(N[C@H]3CC[C@H](Nc4cnc(C)c(C)n4)C3)nc2)c1` [Example 15, 6′-(((1S,3S)-3-((5,6-Dimethylpyrazin-2-yl)amino)cyclopentyl)amino)-5-methoxy-2H-[1,3′-bipyridin]-2-one] was tested, and the IC50 [1] was > 40 µM, the IC50 [2] was 0.874 µM and the IC50 [3] was 0.118 µM.

For `Cc1ncc(N[C@H]2CC[C@H](Nc3ccc(N4CC(=O)N(C)C4=O)cn3)C2)nc1C` [Example 16, 1-(6-(((1S,3S)-3-((5,6-Dimethylpyrazin-2-yl)amino)cyclopentyl)amino)pyridin-3-yl)-3-methylimidazolidine-2,4-dione], the IC50 [1] was > 40 µM, the IC50 [2] was > 10 µM and the IC50 [3] was 0.103 µM.

In the case of `Cc1ncc(N[C@H]2CC[C@H](Nc3ccc(-n4cc(Cl)ccc4=O)cn3)C2)nc1C` [Example 17, 5-Chloro-6′-(((1S,3S)-3-((5,6-dimethylpyrazin-2-yl)amino)cyclopentyl)amino)-2H-[1,3′-bipyridin]-2-one], the IC50 [1] is reported as > 40 µM, the IC50 [2] is reported as > 10 µM and the IC50 [3] is reported as 0.053 µM.

In the case of `O=c1cccnn1-c1ccc(N[C@H]2CC[C@H](Nc3cnc(Cl)cn3)C2)nc1` [Example 25, 2-(6-(((1S,3S)-3-((5-Chloropyrazin-2-yl)amino)cyclopentyl)amino)pyridin-3-yl)pyridazin-3 (2H)-one], the IC50 [1] is reported as > 40 µM, the IC50 [2] is reported as > 10 µM and the IC50 [3] is reported as 0.028 µM.

For `CN1C(=O)CN(c2ccc(N[C@H]3CC[C@H](Nc4cnc(Cl)cn4)C3)nc2)C1=O` [Example 26, 1-(6-(((1S,3S)-3-((5-Chloropyrazin-2-yl)amino)cyclopentyl)amino)pyridin-3-yl)-3-methylimidazolidine-2,4-dione], the IC50 [1] was 14.3 µM, the IC50 [2] was > 10 µM and the IC50 [3] was 0.0243 µM.

`COc1ccc(=O)n(-c2ccc(N[C@H]3CC[C@H](Nc4cnc(Cl)cn4)C3)nc2)c1` [Example 28, 6′-(((1S,3S)-3-((5-Chloropyrazin-2-yl)amino)cyclopentyl)amino)-5-methoxy-2H-[1,3′-bipyridin]-2-one] gave an IC50 [1] of 25 µM, an IC50 [2] of 0.16 µM and an IC50 [3] of 0.043 µM.

In the case of `O=c1ccc(Cl)cn1-c1ccc(N[C@H]2CC[C@H](Nc3cnc(Cl)cn3)C2)nc1` [Example 29, 5-Chloro-6′-(((1S,3S)-3-((5-chloropyrazin-2-yl)amino)cyclopentyl)amino)-2H-[1,3′-bipyridin]-2-one], the IC50 [1] is reported as 11.1 µM, the IC50 [2] is reported as > 10 µM and the IC50 [3] is reported as 0.014 µM.

`Cc1ccc(=O)n(-c2ccc(N[C@H]3CC[C@H](Nc4cnc(Cl)cn4)C3)nc2)c1` [Example 30, 6′-(((1S,3S)-3-((5-Chloropyrazin-2-yl)amino)cyclopentyl)amino)-5-methyl-2H-[1,3′-bipyridin]-2-one] was tested, and the IC50 [1] was 32.2 µM, the IC50 [2] was > 10 µM and the IC50 [3] was 0.027 µM.

Work on `COc1ccc(=O)n(-c2ccc(N[C@H]3CC[C@H](Nc4cnc(C)cn4)C3)nc2)c1` [Example 40, 5-Methoxy-6′-(((1S,3S)-3-((5-methylpyrazin-2-yl)amino)cyclopentyl)amino)-2H-[1,3′-bipyridin]-2-one] yielded an IC50 [1] of 35.5 µM, an IC50 [2] of 0.192 µM and an IC50 [3] of 0.067 µM.

In the case of `Cc1cnc(N[C@H]2CC[C@H](Nc3ccc(N4C(=O)CN(C)C4=O)cn3)C2)cn1` [Example 41, 1-Methyl-3-(6-(((1S,3S)-3-((5-methylpyrazin-2-yl)amino)cyclopentyl)amino)pyridin-3-yl)imidazolidine-2,4-dione], the IC50 [1] is reported as > 40 µM, the IC50 [2] is reported as > 10 µM and the IC50 [3] is reported as 0.057 µM.

`Cc1ncc(N[C@H]2CC[C@H](Nc3ccc(-n4cc(C#N)ccc4=O)cn3)C2)nc1C` [Example 48, 6′-(((1S,3S)-3-((5,6-Dimethylpyrazin-2-yl)amino)cyclopentyl)amino)-2-oxo-2H-[1,3′-bipyridine]-5-carbonitrile] was tested, and the IC50 [1] was 18.4 µM, the IC50 [2] was > 10 µM and the IC50 [3] was 0.113 µM.

In the case of `Cc1cnc(N[C@H]2CC[C@H](Nc3ccc(-n4cc(C#N)ccc4=O)cn3)C2)cn1` [Example 49, 6′-(((1S,3S)-3-((5-Methylpyrazin-2-yl)amino)cyclopentyl)amino)-2-oxo-2H-[1,3′-bipyridine]-5-carbonitrile], the IC50 [1] is reported as > 40 µM, the IC50 [2] is reported as > 10 µM and the IC50 [3] is reported as 0.058 µM.

`O=C1CC[C@H](CO)N1c1ccc(N[C@H]2CC[C@H](Nc3cnc(OC(F)F)cn3)C2)nc1` [Example 77, (R)-1-(6-(((1S,3S)-3-((5-(Difluoromethoxy)pyrazin-2-yl)amino)cyclopentyl)amino)pyridin-3-yl)-5-(hydroxymethyl)pyrrolidin-2-one] was tested, and the IC50 [1] was > 40 µM, the IC50 [2] was > 10 µM and the IC50 [3] was 1.53 µM.

For `O=C1[C@@H]2OCC[C@@H]2CCN1c1ccc(N[C@H]2CC[C@H](Nc3cnc(OC(F)F)cn3)C2)nc1` [Example 78, (3aS,7aR)-6-(6-(((1S,3S)-3-((5-(Difluoromethoxy)pyrazin-2-yl)amino)cyclopentyl)amino)pyridin-3-yl)hexahydrofuro[2,3-c]pyridin-7(4H)-one], the IC50 [1] was > 40 µM, the IC50 [2] was > 10 µM and the IC50 [3] was 1.63 µM.

With `COc1ccc(=O)n(-c2ccc(N[C@H]3CC[C@H](Nc4cnc(C5CC5)cn4)C3)nc2)c1` [Example 107, 6′-(((1S,3S)-3-((5-Cyclopropylpyrazin-2-yl)amino)cyclopentyl)amino)-5-methoxy-2H-[1,3′-bipyridin]-2-one] the IC50 [2] was 0.16 µM and the IC50 [3] was 0.105 µM.

With `Cc1cnc(N[C@H]2CC[C@H](Nc3ccc(-n4cccc(-c5cnn(C)c5)c4=O)cn3)C2)cn1` [Example 203, 3-(1-Methyl-1H-pyrazol-4-yl)-6′-(((1S,3S)-3-((5-methylpyrazin-2-yl)amino)cyclopentyl)amino)-2H-[1,3′-bipyridin]-2-one] the IC50 [1] was > 40.1 µM and the IC50 [2] was > 10 µM.
